According to patent US7507739B2, “6-[(substituted)phenyl]triazolopyrimidines as anticancer agents” (Wyeth, priority 2003, dated 2009):

How the values were obtained:
COLO 205 cells = assay: MTS cytotoxicity test with COLO 205 cells; format: cell-based, human; conditions: Homo sapiens, COLO 205, 72 h, 3 days
Method: The assay, which is sold in kit form by Promega (Madison, Wis.; CellTiter 96 AQueous Non-Radioactive Cell Proliferation Assay), is based on the conversion by viable cells, but not by dead cells, of the tetrazolium salt, MTS (3-(4,5-dimethylthiazol-2-yl)-5-(3-carboxymethoxyphenyl)-2-(4-sulphophenyl)-2H-tetrazolium, inner salt), into a water-soluble colored formazan which is detected by spectrophotometry. Compounds are tested at nine concentrations, in order to determine IC50 values. For the test procedure, cells are harvested by trypsinization (or, in the case of non-adherent cells, by simple resuspension), washed, counted and distributed to wells of 96-well flat-bottom microtiter plates at 1000 cells per well in 200 μL of medium. In addition, one row of wells on a separate plate received cells as above (“time 0” plate). All plates are incubated at 37° in humidified 5% CO2 in air for about 24 hr.
On day 2, compounds for test are diluted and added to wells. Compounds are dissolved in DMSO at 10 mg/mL. For each compound, nine serial 2-fold dilutions are prepared in DMSO. Ten μL of each dilution in DMSO is transferred to 100 μL of medium, mixed well, and then 5 μL of this dilution is transferred in quadruplicate to wells containing cells. The final high concentration of each compound is typically 5 μM. Plates are returned to the incubator for three days. At the time of drug addition to the experimental plates, the MTS assay is run on the “time 0” plate. This produced the “time 0 MTS value” which is related to the number of viable cells per well at the time of drug addition.
After three days of culture with test compounds (day 5 overall), the MTS assay is done on all wells of the experimental plates. The absorbance values of the quadruplicate sample wells are averaged and divided by the average of the “time 0” values. The average of control wells without drug, divided by the average “time 0” value, gave the maximal relative increase in MTS color yield due to cell growth during the final three days of culture. The average of control wells with high drug concentration, divided by the “time 0” value, gave the minimal relative color yield for cells that are completely killed. The nine values for each compound are plotted against concentration, and the concentration that produced a relative color yield half way between the maximum and minimum is taken as the IC50 value.
COLO 205 is a human colon carcinoma cell line that is used for comparative testing of the examples of this invention and several reference compounds. This line is sensitive to paclitaxel and vincristine.

MAP-rich tubulin = assay: Tubulin polymerization test with MAP-rich tubulin; format: biochemical, bovine; conditions: 0.3 μM compound, 20 min, fold enhancement over control
Method: Medium is RPMI-1640 with L-glutamine, supplemented with 10% heat-inactivated fetal calf serum, 100 units/ml penicillin, and 100 μg/ml streptomycin (Gibco, Grand Island, N.Y.). Microtubule-associated protein (MAP)-rich tubulin, containing about 70% tubulin and 30% MAPs (#ML113), and highly purified tubulin (>99% pure, #TL238), both from bovine brain, are obtained from Cytoskeleton, Inc., Denver, Colo. PEM buffer (80 mM piperazine-N,N′-bis[2-ethanesulfonic acid], pH 6.9, 1 mM ethylene glycol-bis(β-aminoethyl ether)-N,N,N′,N′-tetraacetic acid, 1 mM magnesium chloride) and guanosine 5′-triphosphate (GTP) are also obtained from Cytoskeleton. [3H]paclitaxel, specific activity 14.7 Ci/mmol, is purchased from Moravek Biochemicals (Brea, Calif.). [^3H]vinblastine, specific activity 9.60 Ci/mmol and MicroSpin G-50 columns are obtained from Amersham Biosciences (Piscataway, N.J.). […] Other reagents are obtained from Sigma (St. Louis, Mo.).
Two variations of this procedure are done, one using MAP-rich tubulin and one using pure tubulin.
MAP-rich tubulin is dissolved in ice-cold PEM buffer containing 1 mM GTP (GPEM buffer) at a concentration of 1.3 mg/mL. The solution is centrifuged at top speed in an Eppendorf model 5415C microcentrifuge (Brinkmann Instruments, Westbury, N.Y.) for 10 min at […] immediately before use. The tubulin solution is added to wells of a ½-area 96-well plate (Costar No. 3696, Corning, Inc., Corning, N.Y.) already containing the compounds of interest. Each compound is tested in duplicate at a final concentration of 0.3 μM in a volume of 110 μL per well. The final DMSO concentration in all wells is 0.3%. Control reactions, which received compound solvent only, are done in quadruplicate. The plate is put in a SpectraMax Plus plate reader (Molecular Devices Corp. Sunnyvale, Calif.) thermostated at 24° and the absorbance of each well at 340 nm, a measure of the appearance of turbidity due to tubulin polymer formation, is determined every minute for 60 minutes. The absorbance at time 0 for each well is subtracted from each of the subsequent absorbance readings for that well, and then the duplicates are averaged.
In this assay, control reactions with MAP-rich tubulin show an S-shaped absorbance profile characterized by three phases: first, a lag phase during which no change in absorbance occurs; second, a polymerization phase in which absorbance increases; and third, a plateau phase in which absorbance has reached a maximum and little or no further change occurs. Polymerization enhancers such as paclitaxel and docetaxel shorten or eliminate the lag phase, increase the rate of the polymerization phase, and often increase the height of the plateau. […] The compounds of this invention have a taxane-like effect on the polymerization reaction. This has been expressed quantitatively in Table 5 by dividing the mean A340 of each sample at 20 min by the mean A340 of the control at 20 min to give a fold enhancement over control. […] Examples of this invention have factors ranging up to 8.1, with the majority in the 5 to 6-fold range.

Compound | IC50 (COLO 205 cells) | A340 Compound/A340 Control (MAP-rich tubulin)
CNCCCOc1cc(F)c(-c2c(Cl)nc3ncnn3c2NCC(F)(F)F)c(F)c1 [Example 3, 5-Chloro-6-{2,6-difluoro-4-[3-(methylamino)propoxy]phenyl}-N-(2,2,2-trifluoroethyl)[1,2,4]triazolo[1,5-a]pyrimidin-7-amine] | 25 nM | 6.7
C[C@H](Nc1c(-c2c(F)cc(OCCCN3CCN(C)CC3)cc2F)c(Cl)nc2ncnn12)C(F)(F)F [Example 6, 5-Chloro-6-{2,6-difluoro-4-[3-(4-methylpiperazin-1-yl)propoxy]phenyl}-N-[(1S)-2,2,2-trifluoro-1-methylethyl][1,2,4]triazolo[1,5-a]pyrimidin-7-amine] | 155 nM | 6.7
CCNCCCOc1cc(F)c(-c2c(Cl)nc3ncnn3c2N[C@@H](C)C(F)(F)F)c(F)c1 [Example 7, 5-Chloro-6-{4-[3-(ethylamino)propoxy]-2,6-difluorophenyl}-N-[(1S)-2,2,2-trifluoro-1-methylethyl][1,2,4]triazolo[1,5-a]pyrimidin-7-amine] | 29 nM | 6.4
CCN(C)CCCOc1cc(F)c(-c2c(Cl)nc3ncnn3c2N[C@@H](C)C(F)(F)F)c(F)c1 [Example 8, 5-Chloro-6-(4-{3-[ethyl(methyl)amino]propoxy}-2,6-difluorophenyl)-N-[(1S)-2,2,2-trifluoro-1-methylethyl][1,2,4]triazolo[1,5-a]pyrimidin-7-amine] | 48 nM | 6.2
C[C@H](Nc1c(-c2c(F)cc(OCCCN3CCCCC3)cc2F)c(Cl)nc2ncnn12)C(F)(F)F [Example 10, 5-Chloro-6-[2,6-difluoro-4-(3-piperidin-1-ylpropoxy)phenyl]-N-[(1S)-2,2,2-trifluoro-1-methylethyl][1,2,4]triazolo[1,5-a]pyrimidin-7-amine] | 113 nM | 6.3
C[C@H](Nc1c(-c2c(F)cc(OCCCN3CCC3)cc2F)c(Cl)nc2ncnn12)C(F)(F)F [Example 12, 6-[4-(3-Azetidin-1-ylpropoxy)-2,6-difluorophenyl]-5-chloro-N-[(1S)-2,2,2-trifluoro-1-methylethyl][1,2,4]triazolo[1,5-a]pyrimidin-7-amine] | 326 nM | 2.9
C[C@H](Nc1c(-c2ccc(OCCCN(C)C)cc2F)c(Cl)nc2ncnn12)C(F)(F)F [Example 13, 5-Chloro-6-{4-[3-(dimethylamino)propoxy]-2-fluorophenyl}-N-[(1S)-2,2,2-trifluoro-1-methylethyl][1,2,4]triazolo[1,5-a]pyrimidin-7-amine] | 262 nM | 5.4
CNCCOc1cc(F)c(-c2c(Cl)nc3ncnn3c2N[C@@H](C)C(F)(F)F)c(F)c1 [Example 14, 5-Chloro-6-{2,6-difluoro-4-[2-(methylamino)ethoxy]phenyl}-N-[(1S)-2,2,2-trifluoro-1-methylethyl][1,2,4]triazolo[1,5-a]pyrimidin-7-amine] | 881 nM | 1.5
C[C@H](Nc1c(-c2c(F)cc(OCCCCN(C)C)cc2F)c(Cl)nc2ncnn12)C(F)(F)F [Example 15, 5-Chloro-6-{4-[4-(dimethylamino)butoxy]-2,6-difluorophenyl}-N-[(1S)-2,2,2-trifluoro-1-methylethyl][1,2,4]triazolo[1,5-a]pyrimidin-7-amine] | 276 nM | 5.5
C[C@H](Nc1c(-c2c(F)cc(OCCN(C)C)cc2F)c(Cl)nc2ncnn12)C(F)(F)F [Example 16, 5-Chloro-6-{4-[2-(dimethylamino)ethoxy]-2,6-difluorophenyl}-N-[(1S)-2,2,2-trifluoro-1-methylethyl][1,2,4]triazolo[1,5-a]pyrimidin-7-amine] | 581 nM | 2.4
C[C@H](Nc1c(-c2c(F)cc(OCCN3CCOCC3)cc2F)c(Cl)nc2ncnn12)C(F)(F)F [Example 17, 5-Chloro-6-[2,6-difluoro-4-(2-morpholin-4-ylethoxy)phenyl]-N-[(1S)-2,2,2-trifluoro-1-methylethyl][1,2,4]triazolo[1,5-a]pyrimidin-7-amine] | 245 nM | 4.8
C[C@H](Nc1c(-c2c(F)cc(SCCCN(C)C)cc2F)c(Cl)nc2ncnn12)C(F)(F)F [Example 18, 5-Chloro-6-(4-{[3-(dimethylamino)propyl]thio}-2,6-difluorophenyl)-N-[(1S)-2,2,2-trifluoro-1-methylethyl][1,2,4]triazolo[1,5-a]pyrimidin-7-amine] | 192 nM | 5.8
C[C@H](Nc1c(-c2c(F)cc(N(C)CCCN(C)C)cc2F)c(Cl)nc2ncnn12)C(F)(F)F [Example 22, N^1-[4-(5-Chloro-7-{[(1S)-2,2,2-trifluoro-1-methylethyl]amino}[1,2,4]triazolo[1,5-a]pyrimidin-6-yl)-3,5-difluorophenyl]-N′,N^3,N^3-trimethylpropane-1,3-diamine] | 1670 nM | 1.2
C[C@H](Nc1c(-c2c(F)cc(NCCCN(C)C)cc2F)c(Cl)nc2ncnn12)C(F)(F)F [Example 23, N^1-[4-(5-Chloro-7-{[(1S)-2,2,2-trifluoro-1-methylethyl]amino}[1,2,4]triazolo[1,5-a]pyrimidin-6-yl)-3,5-difluorophenyl]-N^3,N^3-dimethylpropane-1,3-diamine] | 719 nM | 4.2
C[C@H](Nc1c(-c2c(F)cc(NCCN(C)C)cc2F)c(Cl)nc2ncnn12)C(F)(F)F [Example 24, N^1-[4-(5-Chloro-7-{[(1S)-2,2,2-trifluoro-1-methylethyl]amino}[1,2,4]triazolo[1,5-a]pyrimidin-6-yl)-3,5-difluorophenyl]-N^2,N^2-dimethylethane-1,2-diamine] | 1730 nM | 1.2
C[C@H](Nc1c(-c2c(F)cc(CCCCN(C)C)cc2F)c(Cl)nc2ncnn12)C(F)(F)F [Example 26, 5-Chloro-6-{4-[4-(dimethylamino)butyl]-2,6-difluorophenyl}-N-[(1S)-2,2,2-trifluoro-1-methylethyl][1,2,4]triazolo[1,5-a]pyrimidin-7-amine] | 665 nM | 4.6
